Reference: ChEMBL document CHEMBL4261660, “Synthesis and biological evaluation of a trisaccharide repeating unit derivative of Streptococcus pneumoniae 19A capsular polysaccharide” (Bioorg Med Chem, 2018)

Legend:
[1] = Inhibition of binding of anti-19A rabbit polyclonal antibody to Streptococcus pneumoniae 19A capsular polysaccharide coated on to plates after overnight incubation at 4 to 8 degC by competitive ELISA; parameters: species or system Oryctolagus cuniculus
[2] = Inhibition of anti-19F rabbit polyclonal antibody binding to Streptococcus pneumoniae 19F capsular polysaccharide coated on to plates after overnight incubation ar 4 to 8 degC by competitive ELISA; parameters: species or system Oryctolagus cuniculus
Oryctolagus cuniculus [3] = organism: Oryctolagus cuniculus; assay: Inhibition of anti-19F rabbit polyclonal antibody binding to Streptococcus pneumoniae 19F capsular polysaccharide coated on to plates at 1 mg/ml after overnight incubation ar 4 to 8 degC by competitive ELISA
Oryctolagus cuniculus [4] = organism: Oryctolagus cuniculus; assay: Inhibition of binding of anti-19A rabbit polyclonal antibody to Streptococcus pneumoniae 19A capsular polysaccharide coated on to plates at 1 mg/ml after overnight incubation at 4 to 8 degC by competitive ELISA

- EC50 [1]: 1.3 ×10⁻³ mg/ml
- EC50 [2]: 2.7 ×10⁻² mg/ml
- inhibition (Oryctolagus cuniculus [3]): 32%
- inhibition (Oryctolagus cuniculus [4]): 41%
SMILES: CC(=O)N[C@@H]1[C@H](O[C@H]2[C@H](O)[C@@H](O)[C@@H](O[C@@H]3[C@@H](O)[C@H](C)O[C@@H](OCCCN)[C@@H]3O)O[C@@H]2CO)O[C@H](CO)[C@@H](O)[C@@H]1O.Cl
